Source: ChEMBL document CHEMBL1153369, “First asymmetric synthesis of CJ-14877 and its enantiomer and their interleukin-1beta inhibitory activities” (2009)

Experiments:
Format in all cases: functional
[1] = system: PBMC; experiment: Inhibition of LPS-induced IL1-beta production in human PBMC at 0.01 uM after 24 hrs by ELISA
[2] = system: PBMC; experiment: Inhibition of LPS-induced IL1-beta production in human PBMC at 0.1 uM after 24 hrs by ELISA
[3] = system: PBMC; experiment: Inhibition of LPS-induced IL1-beta production in human PBMC at 1.0 uM after 24 hrs by ELISA
[4] = system: PBMC; experiment: Inhibition of LPS-induced IL1-beta production in human PBMC at 10 uM after 24 hrs by ELISA

COC(=O)c1ccc([C@@H](O)[C@@H](C)O)cn1
inhibition at 0.01 µM [1]: 9.1%
inhibition at 0.1 µM [2]: 4.3%
inhibition at 1 µM [3]: 10.6%
inhibition at 10 µM [4]: -7.5%

COC(=O)c1ccc([C@H](O)[C@H](C)O)cn1
inhibition at 0.01 µM [1]: -9.5%
inhibition at 0.1 µM [2]: 13.8%
inhibition at 1 µM [3]: 39.6%
inhibition at 10 µM [4]: 49.8%
